Legend:
T. tonsurans = assay: Screen for activity against fungal lawns of T. tonsurans; format: cell-based, Trichophyton tonsurans
[1] = Penetration of compounds of Formula I into mammalian skin (living pig skin); format: in vitro ADME; settings: 5% by wt in lanolin-based cream, applied to outer surface of living pig skin, after one hour
Text: The formulation may be applied to the outer surface of a section of living pig skin.

Structure (SMILES): CCCCCC(O)C(O)CC=CCCCCCCCC(=O)O (centres unmarked) [Compound (iv), 12,13-dihydroxyoctadec-9-enoic acid]
- fungicidal activity against fungal lawns of T. tonsurans (T. tonsurans): effective fungicidal activity
- penetration of the active compounds into the dermis and epidermis [1]: a significant amount of compounds (i) and (iv) has penetrated the dermis

Reference: patent publication US20110118347A1, “TREATMENT Of RINGWORM” (Vernolix Limited, priority 2008, published 2011)
